Assay results from patent US20220090209A1, “RETROTRANSPOSON BIOMARKERS” (VIB VZW, priority 2019, published 2022).

Legend:
4T1^Hif1b-KO grafts = test: 4T1 Hif1b-KO grafts in mice treated with aza or vehicle; format: in vivo, mouse
From the text: (§1) Four gRNAs targeting two different exons in the Hif1b locus of the mouse genome and one non-targeting gRNA (scramble) were designed with the appropriate restriction sites for the receiver plasmid using the online Crispor tool (http://crispor.tefor.net). Oligonucleotides corresponding to gRNAs were synthesized by IDT, and forward and reverse oligonucleotides were annealed in the CutSmart buffer (B7240S, NEB) before cloning into the LentiGuide-Puro plasmid (Plasmid 52963, Addgene). Positive colonies were screened by PCR and validated by Sanger sequencing. LentiGuide-Puro plasmids containing GFP was used as positive control to evaluate the transfection- and transduction-efficacy.
(§2) 4T1 cells were transduced with a lentiviral vector expressing a doxycycline inducible Cas9 nuclease (Cat #CAS11229, Dharmacon) for a tight regulation of the Cas9 expression and gene editing. An infection rate of 30% was used to ensure that the majority of transduced cells harbour a single copy of the vector. These 4T1 cells were always kept in selection medium containing 10 μg/mL of blasticidin (ant-bl-05, Invivogen). When reaching 70% confluency, cells were transduced with one titer of virus. After 24h, the virus was removed and transduction efficacy evaluated based on GFP expression. After 48h, puromycin (P9620, Sigma-Aldrich) 1.5 μg/mL medium was added to the medium. Cells were kept in the presence of blasticidin and puromycin for the remaining experimental procedures. After 3-5 days, Cas9 expression was induced by adding […] (D2975000, Sigma-Aldrich) 0.5 μg/mL medium for 3 days. Cells were kept one day without […] before injection in the mice or further experimental procedures. 4T1 cells transduced with the four gRNAs targeting Hif1b were expanded and proteins were extracted to test the efficacy of the knockout by western blot. […]
(§3) All the experimental procedures were approved by the Institutional Animal Care and Research Advisory Committee of the KU Leuven. […] Tumour volumes were monitored every two to three days by a calliper, and mice were culled before tumour volumes exceeded 2,000 mm^3. […]

4T1^Hif1b-scr grafts = test: 4T1 Hif1b-scr (scramble-control) grafts in mice treated with aza or vehicle; format: in vivo, mouse
From the text: as §1, §2, §3

4T1 tumours [1] = test: RNA-seq of 4T1 tumours from treated mice (retrotransposon expression, immune signatures); format: in vivo, mouse
Procedure: (§4) mRNA capture and stranded library preparation of RNA from MCF7 cells, mouse cell lines and tumours for the purpose of retrotransposon expression analysis was performed using the KAPA Stranded mRNA-Seq Kit (Illumina) according to the provided protocol.
(§5) RNA-seq data were expressed in transcript per million (TPM), 0.01 offset. Expression read counts of retrotransposons are calculated using the RepEnrich tool (https://github.com/nerettilab/RepEnrich), and normalized to the total mappable read depth. The repeat genome of the human reference genome hg19 was download from the RepEnrich website. Human retrotransposon classes (LINE, SINE, LTR) contain 16 families and 779 subfamilies. The repeat genome of the mouse genome mm10 was built using the repeat masker track from the UCSC genome browser. Mouse retrotransposon classes (LINE, SINE, LTR) contain 24 families and 906 subfamilies.
(§6) All the experimental procedures were approved by the Institutional Animal Care and Research Advisory Committee of the KU Leuven. 1×10^6 4T1 cells, Hif1b-knockout or wild-type (scramble), were injected orthotopically in the mammary gland of 10 weeks old Balb/c mice, and 1×10^6 CT26 or MC38 cells were injected subcutaneously in 10 weeks old Balb/c or C57BL/6J mice, respectively. When the tumour was palpable (starting volume 100 mm^3), the mice were injected intraperitoneally with 0.8 mg/kg of 5-aza-2′-deoxycytidine (aza) or PBS, 40 mg/kg DC101 antibody (BE0089, InVivoMab) or IgG (BE0060, InVivoMab) or 10 mg/kg anti-PD1 antibody (6E0146, InVivoMab) or IgG antibody (BE0089, InVivoMab) according to the following schedules: DC101 three times per week; anti-PD1 every other day, starting when the tumour size was around 200 mm^3; aza was administered in 2 cycles with 2-days rest in between until the control tumours reached the endpoint. Tumour volumes were monitored every two to three days by a calliper, and mice were culled before tumour volumes exceeded 2,000 mm^3. When over 20% of mice were culled, the experiment was terminated (all arms). In vivo experiments in 4T1, CT26 and MC38 treated with aza or anti-PD1 antibody were performed three times, with at least 6 mice per treatment group in each experiment.

4T1 cells = test: Retrotransposon expression in 4T1 cells in vitro; format: cell-based, mouse
Procedure: (§7) Where indicated, cells were pre-treated with 5-aza-2′-deoxycytidine (aza, 1 μM) for 3 days by adding the correct volume to fresh culture medium while using an equal volume of the carrier (DMSO) as control. This was followed by another day of exposure to aza in hypoxia or normoxia, bringing the total aza exposure time for experiments to 4 days. 2 mM of DMOG (dimethyloxalylglycine, Sigma) was added to culture medium for 24 hours where indicated.
as §4, §5

[2] = tested on: HIF1B-knockout MCF7 cells; test: Retrotransposon expression by mRNA-seq and RepEnrich in HIF1B-knockout MCF7 cells; format: cell-based, human
Procedure: MCF7, RCC4, SK-MEL-28, A549, 4T1, MC38 and CT26 cell lines were obtained from the American Type Culture Collection and their identity was not further authenticated. These are not listed in the database of commonly misidentified cell lines maintained by ICLAC. MCF7 HIF1B-knockout cells were previously described (Ahmed et al. 2013, Toxicol Sci 138:89-103). MCF7, RCC4, A549, MC38 and 4T1 cells were cultured at 37° C. in Dulbecco's modified Eagle medium (DMEM) with 10% fetal bovine serum (FBS), 5 mL of 100 U/mL Penicillin-Streptomycin (Pen Strep, Life Technologies) and 5 mL of L-Glutamine 200 mM. SK-MEL-28 and CT26 cell lines were cultured at 37° C. in Roswell Park Memorial Institute 1640 Medium (RPMI) with 10% FBS 1% Penicillin-Streptomycin and 1% L-Glutamine.
as §7, with “2 mM of DMOG (dimethyloxalylglycine, Sigma) was added to culture medium for 24 hours where indicated.” left out
RNA-seq data were expressed in transcript per million (TPM), 0.01 offset. Expression read counts of retrotransposons are calculated using the RepEnrich tool (https://github.com/nerettilab/RepEnrich), and normalized to the total mappable read depth. […]

4T1 tumours [3] = test: Growth of orthotopic 4T1 tumours in mice; format: in vivo, mouse; conditions: aza versus vehicle, P=3.0×10^-3
Procedure: as §6

4T1 tumours [4] = test: Immunofluorescence of 4T1 tumours (CD31, pimonidazole, CD8, granzyme B); format: in vivo, mouse; conditions: aza versus vehicle
Procedure: as §6, with “experiment. […]” for “experiment.”

MCF7 cells [5] = test: DNA methylation in aza-treated MCF7 cells (LC-ESI-MS/MS of 5mC, BS-seq); format: cell-based, human
MCF7 cells [6] = test: Retrotransposon expression by mRNA-seq and RepEnrich in MCF7 cells; format: cell-based, human
Procedure: as §7, §4, §5

[7] = tested on: HIF1β binding peaks in MCF7 cells; test: HIF1β ChIP-seq in hypoxic vehicle- and aza-treated MCF7 cells
[8] = aza versus PBS, GSVA on immune metagenes

## Nc1ncn([C@H]2C[C@H](O)[C@@H](CO)O2)c(=O)n1 [aza, 5-aza-2′-deoxycytidine]
4T1^Hif1b-KO grafts; aza treatment
  cancer testis antigen expression: significant upregulation
4T1^Hif1b-KO grafts; aza versus vehicle, P=0.21
  graft size: failed to show this reduction
4T1^Hif1b-KO grafts; following aza
  number of activated T cells: failed to show such increase
4T1^Hif1b-scr grafts; aza treatment
  cancer testis antigen expression: significant upregulation
4T1^Hif1b-scr grafts; aza versus vehicle, P=0.021
  graft size: significantly reduced size
4T1^Hif1b-scr grafts; following aza
  number of activated T cells: increased
4T1 tumours [1]; [8]
  activated T cell and natural killer cell signatures: upregulated
  myeloid-derived suppressor cell signatures: downregulated
4T1 tumours [1]; aza versus vehicle
  cell proliferation marker expression: did not reduce
4T1 tumours [1]; in vivo, aza versus vehicle
  retrotransposon expression: increased
4T1 cells
  retrotransposon expression: increase
[2]; aza alone
  retrotransposon overexpression (increase): 25%
[2]; aza in hypoxia
  retrotransposon overexpression (increase): 20%
4T1 tumours [3]
  change in tumour growth: −32%
4T1 tumours [4]; P<0.05
  increase in number of activated, granzyme B-positive T cells: 2.1 fold
4T1 tumours [4]; immunofluorescence of CD8+ T cells
  T-cell infiltration: unaffected
MCF7 cells [5]; MCF7 cells pharmacologically demethylated with aza (1 μM, 4 days)
  overall reduction of DNA methylation: 70.5±5.5%
MCF7 cells [5]; aza-treated versus untreated MCF7 cells
  reduced methylation at new HIF1β binding sites in aza-treated cells: 2.5 fold
MCF7 cells [6]; aza alone
  increase in expression of the 176 retrotransposon subfamilies bound by HIF1β: 23%
MCF7 cells [6]; aza-treated MCF7 cells, P<0.05
  expression of the 59 retrotransposons correlated with cytolytic activity: upregulated
MCF7 cells [6]; combined aza and chronic (4-day) hypoxia
  average increase in retrotransposon expression: 45%
MCF7 cells [6]; combined aza and hypoxia (24 hours, 0.5% O2)
  increase in expression of the 176 retrotransposon subfamilies bound by HIF1β: 27%
[7]; HIF1β ChIP-seq, hypoxia 0.5% O2 16 hours
  new HIF1β binding peaks exposed: 1,236
[7]; versus 4.1% in vehicle-treated MCF7 cells
  fraction of aza-specific HIF1β binding peaks in retrotransposons: 8.1%
[7]; versus peaks in vehicle-treated MCF7 cells
  enrichment of novel aza-specific HIF1β binding peaks for retrotransposons: 2 fold
